Results reported in patent publication US12385039B2, “Trinucleotide cap analogs, preparation and uses thereof” (LIFE TECHNOLOGIES CORPORATION, priority 2020, dated 2025).

Columns and labels:
T7 RNA polymerase = T7 RNA polymerase (Escherichia phage T7, UniProt P00573); conditions: HB-WT Template, ARCA Cap (4:1 ARCA:GTP)
Protocol: The DNAzyme reaction was performed in a 20 μl reaction containing 1-2 μg RNA and 0.5 μM DNAzyme in 50 mM Tris-HCl pH 7.5. The reaction mixture was preheated at 85° C. for 30 seconds and equilibrate at 37° C. for 5 minutes and added magnesium chloride to 10 mM so that the total volume was 20 μl. The reaction mixture was incubated at 37° C. for 1 hour and stopped by adding 2 μL TURBO DNase and incubating at 37° C. for 30 minutes.
The DNAzyme reaction mixture was prepared for gel analysis by mixing with 2× NOVEX™ TBE-Urea sample buffer (Thermo Fisher Scientific, cat. no. LC6876) and heating at 70° C. for 2 minutes. The sample was loaded onto a NovEx™ 15% TBE-Urea gel (Thermo Fisher Scientific, cat. no. EC68855BOX) and ran at 15 V, 15 mA for 1 hour and 40 minutes or until the bromophenol blue dye migrated to the bottom of the gel. The gel was removed from the cassette, washed in water, and stained with SYBR™ Gold Nucleic Acid Gel Stain (Thermo Fisher Scientific, cat. no. S11494) for 5-10 minutes. Following a brief wash in water, the gel was visualized over an UV light and an image was captured using an iBRIGHT™ system (Thermo Fisher Scientific). Capping efficiency was determined using […] ™ software (ProteinSimple) to measure band intensities of the fast and slow migrating transcripts (capped transcripts are longer than uncapped transcripts; therefore uncapped migrates faster).

T7 or SP6 RNA polymerase = conditions: either 3'-OH of G or m7G can initiate elongation; cited from earlier work

Sequence of T7 RNA polymerase (P00573 whole entry, looked up): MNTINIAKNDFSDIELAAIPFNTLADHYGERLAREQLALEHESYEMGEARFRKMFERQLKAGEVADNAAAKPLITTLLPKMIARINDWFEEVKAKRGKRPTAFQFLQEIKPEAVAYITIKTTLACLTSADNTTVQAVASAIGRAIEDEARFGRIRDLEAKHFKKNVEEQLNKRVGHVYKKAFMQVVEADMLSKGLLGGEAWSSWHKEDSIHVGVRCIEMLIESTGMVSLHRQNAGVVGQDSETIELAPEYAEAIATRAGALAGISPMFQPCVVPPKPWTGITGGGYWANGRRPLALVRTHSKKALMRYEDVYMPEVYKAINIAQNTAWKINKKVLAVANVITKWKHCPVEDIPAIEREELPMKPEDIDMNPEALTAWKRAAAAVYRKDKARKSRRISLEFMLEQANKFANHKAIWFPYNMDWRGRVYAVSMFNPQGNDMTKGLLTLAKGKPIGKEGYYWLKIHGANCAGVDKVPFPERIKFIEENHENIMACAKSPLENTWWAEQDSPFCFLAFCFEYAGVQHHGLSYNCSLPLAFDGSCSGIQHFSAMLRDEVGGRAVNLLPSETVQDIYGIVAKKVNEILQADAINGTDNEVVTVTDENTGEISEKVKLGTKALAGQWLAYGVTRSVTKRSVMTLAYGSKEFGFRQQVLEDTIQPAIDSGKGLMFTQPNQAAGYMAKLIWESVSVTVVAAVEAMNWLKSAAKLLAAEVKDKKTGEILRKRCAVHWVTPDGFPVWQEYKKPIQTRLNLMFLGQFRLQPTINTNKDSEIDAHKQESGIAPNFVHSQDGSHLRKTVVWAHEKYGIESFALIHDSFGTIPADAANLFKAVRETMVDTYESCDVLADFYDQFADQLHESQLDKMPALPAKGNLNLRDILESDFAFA

SMILES: CO[C@H]1[C@@H](O)[C@H](n2c[n+](C)c3c(=O)[nH]c(N)nc32)O[C@@H]1COP(=O)(O)OP(=O)(O)OP(=O)(O)OC[C@H]1O[C@@H](n2cnc3c(=O)[nH]c(N)nc32)[C@H](O)[C@@H]1O [ARCA Cap]
- Capping Efficiency Avg % capped (T7 RNA polymerase): 71.93%

SMILES: Cn1c[n+]([C@@H]2O[C@H](COP(=O)(O)OP(=O)(O)OP(=O)(O)OC[C@H]3O[C@@H](n4cnc5c(=O)[nH]c(N)nc54)[C@H](O)[C@@H]3O)[C@@H](O)[C@H]2O)c2nc(N)[nH]c(=O)c21 [mCAP, m^7G(5′)ppp(5′)G]
- capped RNA that is translatable (T7 or SP6 RNA polymerase): ~50%
